System: 653999-131-R-J2-PDC complex spheroid viability
Assay: Anticancer human tumor 653999-131-R-J2-PDC patient-derived lung adenocarcinoma cell line growth inhibition
Conditions: for IC50: curve of first compound; for viability, T/C: stronger effect = lower value
Summary of the method: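 Multicellular complex spheroids of tumor cells with human endothelial cells (HUVEC) and mesenchymal stem cells; the LSD1 inhibitor iadademstat was combined with standard-of-care or investigational agents. Top concentration at or near clinical Cmax, half-log dilutions; final DMSO ≤0.25%.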

[1] = second compound 0.1 µM, first compound 0.00949 µM
[2] = second compound 0.1 µM, first compound 0.03 µM
[3] = second compound 0.1 µM, first compound 0.0949 µM
[4] = second compound 0.1 µM, first compound 0.3 µM
[5] = second compound 0.1 µM, first compound 0.949 µM
[6] = second compound 0.1 µM, first compound 3 µM
[7] = second compound 0.316 µM, first compound 0.00949 µM
[8] = second compound 0.316 µM, first compound 0.03 µM
[9] = second compound 0.316 µM, first compound 0.0949 µM
[10] = second compound 0.316 µM, first compound 0.3 µM
[11] = second compound 0.316 µM, first compound 0.949 µM
[12] = second compound 0.316 µM, first compound 3 µM
[13] = second compound 1 µM, first compound 0.00949 µM
[14] = second compound 1 µM, first compound 0.03 µM
[15] = second compound 1 µM, first compound 0.0949 µM
[16] = second compound 1 µM, first compound 0.3 µM
[17] = second compound 1 µM, first compound 0.949 µM
[18] = second compound 1 µM, first compound 3 µM
[19] = second compound 3.16 µM, first compound 0.00949 µM
[20] = second compound 3.16 µM, first compound 0.03 µM
[21] = second compound 3.16 µM, first compound 0.0949 µM
[22] = second compound 3.16 µM, first compound 0.3 µM
[23] = second compound 3.16 µM, first compound 0.949 µM
[24] = second compound 3.16 µM, first compound 3 µM
[25] = second compound 10 µM, first compound 0.00949 µM
[26] = second compound 10 µM, first compound 0.03 µM
[27] = second compound 10 µM, first compound 0.0949 µM
[28] = second compound 10 µM, first compound 0.3 µM
[29] = second compound 10 µM, first compound 0.949 µM
[30] = second compound 10 µM, first compound 3 µM
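Also: spheroids exposed to agents for seven days before readout.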

For `NS(=O)(=O)OCC1CC(n2ccc3c(NC4CCc5ccccc54)ncnc32)CC1O` (stereo not given) + NC1CC1c1ccc(-c2cccc(O)c2)cc1, the IC50 (second compound 0.1 µM) was > 3000 nM, the IC50 (second compound 0.316 µM) was > 3000 nM and the IC50 (second compound 1 µM) was > 3000 nM. For the same compound, the IC50 (second compound 3.16 µM) was > 3000 nM, the IC50 (second compound 10 µM) was > 3000 nM and the viability, T/C [1] was 94.2%. It also gave a viability, T/C [2] of 97.9%, a viability, T/C [3] of 107% and a viability, T/C [4] of 74.1%. It also gave a viability, T/C [5] of 64.9%, a viability, T/C [6] of 60% and a viability, T/C [7] of 91.8%. It also gave a viability, T/C [8] of 95.7%, a viability, T/C [9] of 118% and a viability, T/C [10] of 81.4%. It also gave a viability, T/C [11] of 66%, a viability, T/C [12] of 61.6% and a viability, T/C [13] of 94.4%. The viability, T/C [14] was 96.4%, the viability, T/C [15] was 113% and the viability, T/C [16] was 72.7%. It also gave a viability, T/C [17] of 64.5%, a viability, T/C [18] of 60.7% and a viability, T/C [19] of 83.2%. It also gave a viability, T/C [20] of 102%, a viability, T/C [21] of 132% and a viability, T/C [22] of 64.9%. The viability, T/C [23] was 64.7%, the viability, T/C [24] was 61.1% and the viability, T/C [25] was 94.1%. The viability, T/C [26] was 105%, the viability, T/C [27] was 132% and the viability, T/C [28] was 68.8%. For the same compound, the viability, T/C [29] was 61.8% and the viability, T/C [30] was 48.2%.
`Nc1ccccc1NC(=O)c1ccc(CNC(=O)OCc2cccnc2)cc1` + NC1CC1c1ccc(-c2cccc(O)c2)cc1 showed an IC50 (second compound 0.1 µM) of 352 nM, an IC50 (second compound 0.316 µM) of 245 nM and an IC50 (second compound 1 µM) of 293 nM. The IC50 (second compound 3.16 µM) was 213 nM, the IC50 (second compound 10 µM) was 177 nM and the viability, T/C [1] was 89%. It also gave a viability, T/C [2] of 101%, a viability, T/C [3] of 81.5% and a viability, T/C [4] of 52.9%. It also gave a viability, T/C [5] of 22.6%, a viability, T/C [6] of 1.35% and a viability, T/C [7] of 93%. It also gave a viability, T/C [8] of 85.8%, a viability, T/C [9] of 64.3% and a viability, T/C [10] of 49.5%. It also gave a viability, T/C [11] of 20.4%, a viability, T/C [12] of 1.41% and a viability, T/C [13] of 81.2%. For the same compound, the viability, T/C [14] was 68.5%, the viability, T/C [15] was 77.9% and the viability, T/C [16] was 48%. For the same compound, the viability, T/C [17] was 13.1%, the viability, T/C [18] was 0.97% and the viability, T/C [19] was 84.6%. For the same compound, the viability, T/C [20] was 74.4%, the viability, T/C [21] was 69.4% and the viability, T/C [22] was 42.1%. For the same compound, the viability, T/C [23] was 15.8%, the viability, T/C [24] was 1.74% and the viability, T/C [25] was 76.1%. The viability, T/C [26] was 82.2%, the viability, T/C [27] was 57.1% and the viability, T/C [28] was 42.3%. For the same compound, the viability, T/C [29] was 13.3% and the viability, T/C [30] was 0.95%.
For `O=C(C=Cc1cccc(S(=O)(=O)Nc2ccccc2)c1)NO` + NC1CC1c1ccc(-c2cccc(O)c2)cc1, the IC50 (second compound 0.1 µM) was > 3000 nM, the IC50 (second compound 0.316 µM) was 296 nM and the IC50 (second compound 1 µM) was 293 nM. For the same compound, the IC50 (second compound 3.16 µM) was 294 nM, the IC50 (second compound 10 µM) was 265 nM and the viability, T/C [1] was 99.8%. For the same compound, the viability, T/C [2] was 109%, the viability, T/C [3] was 88.8% and the viability, T/C [4] was 48.7%. For the same compound, the viability, T/C [5] was 8.83%, the viability, T/C [6] was 99.3% and the viability, T/C [7] was 92.8%. The viability, T/C [8] was 99%, the viability, T/C [9] was 87.9% and the viability, T/C [10] was 45.2%. The viability, T/C [11] was 9.89%, the viability, T/C [12] was 93.6% and the viability, T/C [13] was 78.8%. The viability, T/C [14] was 94.4%, the viability, T/C [15] was 92.4% and the viability, T/C [16] was 49.1%. For the same compound, the viability, T/C [17] was 8.18%, the viability, T/C [18] was 89% and the viability, T/C [19] was 88.2%. It also gave a viability, T/C [20] of 101%, a viability, T/C [21] of 89.8% and a viability, T/C [22] of 45.8%. The viability, T/C [23] was 7.35%, the viability, T/C [24] was 94.9% and the viability, T/C [25] was 83.5%. It also gave a viability, T/C [26] of 88.6%, a viability, T/C [27] of 83.3% and a viability, T/C [28] of 46%. For the same compound, the viability, T/C [29] was 9.36% and the viability, T/C [30] was 82.4%.

Source: PubChem BioAssay AID1918939 (Molecular Pharmacology Branch, DTP, NCI, 2023)
